The text below walks through data of patent US8791163B2 (McGill University, priority 2006, dated 2014).

Where “and” joins values, the source holds several entries; their conditions need not be identical. Identical values can stand only once.

Experiment [1] addresses T1, cloned human MT2 receptors (Homo sapiens, UniProt P49286).
T1 construct: expressed in transfected cells
T1 sequence (P49286 1-362): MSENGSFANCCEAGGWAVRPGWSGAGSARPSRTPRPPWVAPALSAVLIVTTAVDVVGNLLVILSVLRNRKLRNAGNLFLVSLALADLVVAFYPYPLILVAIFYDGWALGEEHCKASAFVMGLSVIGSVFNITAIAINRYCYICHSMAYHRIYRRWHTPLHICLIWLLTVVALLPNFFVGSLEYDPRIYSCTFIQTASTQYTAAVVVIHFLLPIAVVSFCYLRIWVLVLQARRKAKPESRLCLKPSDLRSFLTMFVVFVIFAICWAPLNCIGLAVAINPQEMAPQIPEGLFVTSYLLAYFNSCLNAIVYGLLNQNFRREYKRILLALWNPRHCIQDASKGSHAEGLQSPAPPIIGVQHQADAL
Briefly: 2-[125I]iodomelatonin competition binding, human MT2 in NIH3T3 cells. Particulars: human recombinant receptors expressed in NIH3T3 cells.

Experiment [2] addresses T2, cloned human MT1 receptors (Homo sapiens, UniProt P48039).
T2 construct: expressed in transfected cells
Briefly: [35S]GTPγS binding assay, NIH3T3 cells expressing human MT1. The class given is biochemical.

Experiment [3] concerns the target T1, cloned human MT2 receptors. Put plainly: [35S]GTPγS binding assay, NIH3T3 cells expressing human MT2. The class given is biochemical. Particulars: maximal net effect relative to MLT.
The test system of experiment [4] is Male Sprague-Dawley rats. Briefly: Forced Swimming Test (FST). In kind it is in vivo, rat. Particulars: 5b 40 mg/kg i.p. 24, 5 and 1 hour prior to the test; vs vehicle. The text has this:
The forced swimming test (FST), Open field Test (OFT) and the in vivo electrophysiology recording were employed to evaluate the anti-depressant activity, the anti-anxiety activity and the sleep promoting properties of the compounds of the present invention [compounds of Formula (I)]. The following results were obtained using compound 5b. Male Sprague-Dawley rats (225-275 g, Charles-River Saint-Constant, Quebec, Canada) were used. The animals were housed at constant room temperature and humidity under a 12 h light/dark cycle. Food and water were available ad libitum. All procedures were approved by local institutional care and use committees and followed the guidelines released by the Canadian Institutes of Health Research.
The FST is typically a two-day procedure in which rats are immersed in a water containing cylinder (18 cm in diameter; 40 cm high; water 30 cm deep, 25-27° C.) from which they cannot escape. On the first day, the rats are forced to remain in the water bath for 15 minutes (pre-test). During this time, the rats usually struggle to escape, but eventually adopt a posture of immobility in which they emit only the minimal movements necessary to keep their heads above water. The actual test (5 min) occurs 24 h later. When re-immersed in the water, immobility is increased; antidepressant treatments reliably reduce immobility during the test. The FST is both sensitive and selective for clinically effective antidepressants, has been repeatedly validated and is currently the most popular model for detecting antidepressant activity due to its ease of use, reliability and extremely high predictive validity (Lucki, I. (1997) Behav. Pharmacol. 8(6-7): 523-32).
At the end of the pre-test, the rats are removed from the water bath, dried with towels and placed in a warm enclosure for 15 min. The rats are then returned to their respective home cages. […] Behavior is recorded continuously throughout the 5 min test by a video camera positioned directly above the water cylinder. […] The total time for each type of behavior represents the times that a specified behavior is detected. […]

For experiment [5], the system named is Sprague Dawley rats. Briefly: Novelty-Induced Suppressed Feeding (NSF) Test. In kind it is in vivo, rat. Particulars: for Latency (sec) to feed: 60 min before the test. The protocol:
The NSF test is used to assess the anti-anxiety effect of a drug [Bodnoff et al. Psychopharmacology 1988, 95(3), 298-307]. Sprague Dawley rats were used in the NSF test. The testing apparatus comprises a brightly lit open area covered with lab chow pellets. Forty-eight hours prior to behavioral testing, all food was removed from the apparatus. Animals treated with compound 5b (40 or 80 mg/kg) were injected 60 min before the test, whereas animals treated with vehicle (DMSO/saline 7:3) or diazepam were injected 45 min before the test. The drugs were administered subcutaneously and the experiments were conducted after 5:30 PM. The latency to feed, defined as chewing the food as opposed to merely sniffing or playing with a pellet, was then recorded (Table 6). The experiment was terminated for those animals that had not begun eating within a period of 360 seconds, which animals were assigned a latency score of 360 seconds. All analyses were conducted using Sigma Stats and SPSS software. The results are expressed as the mean±SEM per n (number) animals tested (*, p<0.01, ANOVA or t test).

T2 sequence (P48039 whole entry): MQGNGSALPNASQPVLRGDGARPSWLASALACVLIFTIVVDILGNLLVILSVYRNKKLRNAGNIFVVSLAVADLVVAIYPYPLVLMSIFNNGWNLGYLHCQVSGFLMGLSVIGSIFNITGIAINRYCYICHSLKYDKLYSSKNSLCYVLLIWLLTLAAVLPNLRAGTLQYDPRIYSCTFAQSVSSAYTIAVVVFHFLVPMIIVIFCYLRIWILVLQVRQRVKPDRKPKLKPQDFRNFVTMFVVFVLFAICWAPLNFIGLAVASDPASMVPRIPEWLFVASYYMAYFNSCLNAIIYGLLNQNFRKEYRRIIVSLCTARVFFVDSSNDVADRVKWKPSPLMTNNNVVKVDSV

Turning to `COc1cccc(N(CCNC(C)=O)c2ccccc2)c1` [5b, N-{2-[(3-Methoxyphenyl)-phenylamino]ethyl}acetamide], the “higher affinity for the MT2 than for the MT1 subtype” value in experiment [1] is listed as roughly 100 fold. Also, the “functional behaviour (maximal stimulation of basal [35S]GTPγS binding lower than melatonin)” value in experiment [2] (MT1 and MT2) is reported as “partial agonist”. The “MT1 IAr ± SEM (relative intrinsic activity)” value in experiment [2] (maximal net effect relative to MLT) was 0.8 and 0.79 ± 0.03. Also, in experiment [3], the “MT2 IAr ± SEM (relative intrinsic activity)” value is 0.6 and 0.61 ± 0.04. In experiment [4], the immobility result is recorded as “significantly decreased”, the “tendency to climb or burst” value is “increased the tendency to climb or burst” and the tendency to swim entry was “increased the tendency to swim”. Also, the “Latency (sec) to feed” value in experiment [5] (5b 40 mg/kg s.c.) is listed as 106.75 ± 10.13 (P ≦ 0.001)* sec. In addition, the “Latency (sec) to feed” value in experiment [5] (5b 80 mg/kg s.c.) is 115.28 ± 13.89 (P ≦ 0.001)* sec. In experiment [5] (5b 40 and 80 mg/kg, injected 60 min before the test, vs vehicle), the “latency to feed (FIG. 5)” value is “decreased latency to feed”.
